Measured values: ChEMBL document CHEMBL1201862, “PubChem BioAssay data set” (2004)
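Briefly, cells in 96-well plates were exposed to five compound concentrations for 48 h, and endpoints were estimated by linear interpolation. The concentration for 50% growth inhibition is given as GI50.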 Activity calls are given as the source filed them. No stated cut-off is given here; in the data, active = GI50 up to about 1.1 µM and inactive = higher.

What was measured:
Experiment in all cases: NCI anticancer screen, dose series, 48 h
[1] = tested on: IGROV-1
[2] = tested on: UACC-62
[3] = tested on: SNB-75
[4] = tested on: RPMI-8226
[5] = tested on: SW-620
[6] = tested on: A549
[7] = tested on: M14
[8] = tested on: U-251
[9] = tested on: DMS-114
[10] = tested on: RXF 393
[11] = tested on: UACC-257
[12] = tested on: CAKI-1
[13] = tested on: 786-0
[14] = tested on: NCI-H226
[15] = tested on: SN12C
[16] = tested on: COLO 205
[17] = tested on: SK-MEL-2
[18] = tested on: BT-549
[19] = tested on: T47D
[20] = tested on: Hs-578T

Row | Compound | GI50 [1] | GI50 [2] | GI50 [3] | GI50 [4] | GI50 [5] | GI50 [6] | GI50 [7] | GI50 [8] | GI50 [9] | GI50 [10] | GI50 [11] | GI50 [12] | GI50 [13] | GI50 [14] | GI50 [15] | GI50 [16] | GI50 [17] | GI50 [18] | GI50 [19] | GI50 [20]
1 | COC(=O)Cc1c([C@@]2(C)CCCC(C)(C)C2)ccc2c1C(=O)OC2 | 15 µM (inactive) | 10.6 µM (inactive) | 14.3 µM (inactive) | 2.7 µM (inactive) | 18.9 µM (inactive) | 9.84 µM (inactive) | 10.5 µM (inactive) | 13.3 µM (inactive) | 3.96 µM (inactive) | 10.4 µM (inactive) | 5.66 µM (inactive) | > 10 µM (inactive) | 15.7 µM (inactive) | 11.2 µM (inactive) | 10.1 µM (inactive) | 6.7 µM (inactive) |  |  |  | 
2 | COc1ccc(C[C@]23CCC(=O)N2CCc2cc(OC)c(O)cc23)cc1O | > 100 µM (inactive) | > 100 µM (inactive) | > 100 µM (inactive) | > 100 µM (inactive) | > 100 µM (inactive) | > 100 µM (inactive) | > 100 µM (inactive) |  | > 100 µM (inactive) | > 100 µM (inactive) | > 100 µM (inactive) | > 100 µM (inactive) | > 100 µM (inactive) | > 100 µM (inactive) | > 100 µM (inactive) | > 100 µM (inactive) |  |  |  | 
3 | O=C(CSc1nnc(Cc2ccccc2)o1)Nc1ccccc1Cl | > 100 µM (inactive) | > 100 µM (inactive) |  | > 100 µM (inactive) | > 100 µM (inactive) | > 100 µM (inactive) | > 100 µM (inactive) | > 100 µM (inactive) | > 100 µM (inactive) |  |  | > 100 µM (inactive) | > 100 µM (inactive) | > 100 µM (inactive) | > 100 µM (inactive) | > 100 µM (inactive) | > 100 µM (inactive) |  |  | 
4 | CCCCc1c2c(nc3c1CC/C(=C\c1ccccc1)C3=O)CCCC2 | 4.61 µM (inactive) | 2.72 µM (inactive) | 11 µM (inactive) | 2.88 µM (inactive) | 1.99 µM (inactive) | 12.3 µM (inactive) | 4.91 µM (inactive) | 3.49 µM (inactive) | 7.74 µM (inactive) | 2.6 µM (inactive) | 5.78 µM (inactive) |  | 2.33 µM (inactive) | > 10 µM (inactive) | 3.18 µM (inactive) | 7.48 µM (inactive) |  |  |  | 
5 | COc1cc2c(cc1O)C=NCC2 | > 100 µM (inactive) | > 100 µM (inactive) | > 100 µM (inactive) | > 100 µM (inactive) | > 100 µM (inactive) | > 100 µM (inactive) | > 100 µM (inactive) | > 100 µM (inactive) | > 100 µM (inactive) |  | > 100 µM (inactive) | > 100 µM (inactive) | > 100 µM (inactive) | > 100 µM (inactive) | > 100 µM (inactive) | 65.8 µM (inactive) | > 100 µM (inactive) |  |  | 
6 | CC1(C)C(=O)C(C)(C)C1=NN | > 100 µM (inactive) | > 100 µM (inactive) | > 100 µM (inactive) | > 100 µM (inactive) | > 100 µM (inactive) | > 100 µM (inactive) | > 100 µM (inactive) | > 100 µM (inactive) | > 100 µM (inactive) | > 100 µM (inactive) | > 100 µM (inactive) | > 100 µM (inactive) | > 100 µM (inactive) | > 100 µM (inactive) | > 100 µM (inactive) | > 100 µM (inactive) |  |  |  | 
7 | CC(=O)C1Cn2c(=O)c3cc4ccccc4cc3c(=O)n2C=C1C (configuration not stated) | > 100 µM (inactive) |  | 67.8 µM (inactive) | > 100 µM (inactive) | > 100 µM (inactive) | > 100 µM (inactive) | > 100 µM (inactive) | > 100 µM (inactive) | > 100 µM (inactive) | > 100 µM (inactive) | > 100 µM (inactive) | > 100 µM (inactive) | > 100 µM (inactive) | > 100 µM (inactive) | > 100 µM (inactive) | > 100 µM (inactive) | > 100 µM (inactive) |  |  | 
8 | N#C/C(=C(/S)Nc1ccccc1)c1nc2ccccc2[nH]1 | 1 µM (active) | > 10 µM (inactive) | > 10 µM (inactive) | > 10 µM (inactive) | > 10 µM (inactive) | > 10 µM (inactive) | > 10 µM (inactive) | > 10 µM (inactive) | > 10 µM (inactive) |  | > 10 µM (inactive) | > 10 µM (inactive) | > 10 µM (inactive) | > 10 µM (inactive) | > 10 µM (inactive) | > 10 µM (inactive) | > 10 µM (inactive) |  |  | 
9 | Cc1cc(C=O)c2c(=O)c3c(O)ccc(/C=C/C(C)C)c3oc2c1 | 52.4 µM (inactive) | 56.8 µM (inactive) | 95.1 µM (inactive) | 23.1 µM (inactive) | 28.1 µM (inactive) | > 100 µM (inactive) | 42.1 µM (inactive) | 41.1 µM (inactive) | 41.4 µM (inactive) |  | > 100 µM (inactive) | 64.7 µM (inactive) | 39.8 µM (inactive) | > 100 µM (inactive) |  | > 100 µM (inactive) | > 100 µM (inactive) |  |  | 
10 | CC(=O)c1ccc2c(ccc(=O)n2C)c1 | > 100 µM (inactive) | 93.8 µM (inactive) | 38.7 µM (inactive) | > 100 µM (inactive) | > 100 µM (inactive) | > 100 µM (inactive) | > 100 µM (inactive) | > 100 µM (inactive) | > 100 µM (inactive) |  |  | > 100 µM (inactive) | > 100 µM (inactive) | > 100 µM (inactive) | > 100 µM (inactive) | > 100 µM (inactive) | > 100 µM (inactive) |  |  | 
11 | NC1=NN(c2ccccc2)C(=O)C1/C(=N\NC(=O)c1cc2ccccc2cc1O)C(=O)Nc1cccc(C(F)(F)F)c1 (configuration not stated) | 27.8 µM (inactive) | 35.2 µM (inactive) | > 100 µM (inactive) | 39.7 µM (inactive) | 34.7 µM (inactive) | 37.2 µM (inactive) | 28.7 µM (inactive) | 37.7 µM (inactive) | 24.8 µM (inactive) | 55.1 µM (inactive) | 26.4 µM (inactive) |  | 38.1 µM (inactive) |  | 46.6 µM (inactive) | 35.7 µM (inactive) | 22.4 µM (inactive) |  |  | 
12 | CC1(O)CCC2(C)C(=O)C1(C)CCC21OCCO1 (configuration not stated) | > 100 µM (inactive) |  |  | > 100 µM (inactive) | > 100 µM (inactive) | > 100 µM (inactive) | > 100 µM (inactive) | > 100 µM (inactive) | > 100 µM (inactive) | > 100 µM (inactive) | > 100 µM (inactive) |  | > 100 µM (inactive) | > 100 µM (inactive) | > 100 µM (inactive) | > 100 µM (inactive) | > 100 µM (inactive) |  |  | 
13 | O=[N+]([O-])c1ccc(C[P+]2(c3ccccc3)CCCCC2)cc1.[O-][Cl+3]([O-])([O-])[O-] | > 100 µM (inactive) | > 100 µM (inactive) | > 100 µM (inactive) | > 100 µM (inactive) | > 100 µM (inactive) | > 100 µM (inactive) | > 100 µM (inactive) | > 100 µM (inactive) | > 100 µM (inactive) | > 100 µM (inactive) | > 100 µM (inactive) |  | > 100 µM (inactive) | > 100 µM (inactive) | > 100 µM (inactive) | > 100 µM (inactive) | > 100 µM (inactive) |  |  | 
14 | Cc1ccc2nc3[nH]nc(N)c3nc2c1 | 37 µM (inactive) | 44.2 µM (inactive) | 64 µM (inactive) | 72.6 µM (inactive) | > 100 µM (inactive) | > 100 µM (inactive) | > 100 µM (inactive) | > 100 µM (inactive) |  | 60 µM (inactive) | > 100 µM (inactive) | 42.6 µM (inactive) | > 100 µM (inactive) | 45.3 µM (inactive) | > 100 µM (inactive) | > 100 µM (inactive) | > 100 µM (inactive) | 67 µM (inactive) | 65.3 µM (inactive) | 89.3 µM (inactive)
15 | COc1cc(C2c3cc4c(cc3[C@@H](N(C)c3ccc(N(C)C)cc3)C3COC(=O)C23)OCO4)cc(OC)c1O (some centres not stated) | 0.536 µM (active) | 0.472 µM (active) | 4.34 µM (inactive) | 0.923 µM (active) | 0.184 µM (active) |  | 0.305 µM (active) | 0.219 µM (active) | 0.264 µM (active) |  | 1.39 µM (inactive) | 0.491 µM (active) | 0.489 µM (active) | 0.292 µM (active) | 0.59 µM (active) | 0.479 µM (active) | 0.33 µM (active) |  |  | 
16 | COc1ccc(CNc2cc(OC)cc(OC)c2)cc1 | > 71.6 µM (inactive) | 52 µM (inactive) | 35.3 µM (inactive) | > 49.7 µM (inactive) | > 100 µM (inactive) | 60.8 µM (inactive) | > 100 µM (inactive) | > 88.5 µM (inactive) | 39.4 µM (inactive) | 43.8 µM (inactive) | 64 µM (inactive) |  | > 37.6 µM (inactive) | 61.1 µM (inactive) |  | > 100 µM (inactive) | > 74 µM (inactive) |  |  | 
17 | COc1ccc2c(c1OC)C(=O)O[C@@H]2[C@H]1c2c(cc3c(c2OC)OCO3)CCN1C [NOSCAPINE] | 62.7 µM (inactive) | 56.9 µM (inactive) | 4.86 µM (inactive) | 23.3 µM (inactive) | 27 µM (inactive) | 72.9 µM (inactive) | 39.2 µM (inactive) | 41 µM (inactive) |  | > 100 µM (inactive) | 55.1 µM (inactive) | 63 µM (inactive) | 49.9 µM (inactive) | > 100 µM (inactive) | > 100 µM (inactive) | 63.5 µM (inactive) | 34.1 µM (inactive) | 45.7 µM (inactive) | > 100 µM (inactive) | 21.1 µM (inactive)
